This is an account of results in BindingDB's records for doi:10.7270/Q2TX3CTT (Broad Institute, 2010).

In this experiment the target is Glycogen synthase kinase-3 beta (Homo sapiens, UniProt P49841). As to the kind of experiment: GSK3beta kinase inhibitor potency, dose response, biochemical, luminescence, cell-free homogeneous, retest (AID 434954).
Chain of Glycogen synthase kinase-3 beta (P49841 whole entry): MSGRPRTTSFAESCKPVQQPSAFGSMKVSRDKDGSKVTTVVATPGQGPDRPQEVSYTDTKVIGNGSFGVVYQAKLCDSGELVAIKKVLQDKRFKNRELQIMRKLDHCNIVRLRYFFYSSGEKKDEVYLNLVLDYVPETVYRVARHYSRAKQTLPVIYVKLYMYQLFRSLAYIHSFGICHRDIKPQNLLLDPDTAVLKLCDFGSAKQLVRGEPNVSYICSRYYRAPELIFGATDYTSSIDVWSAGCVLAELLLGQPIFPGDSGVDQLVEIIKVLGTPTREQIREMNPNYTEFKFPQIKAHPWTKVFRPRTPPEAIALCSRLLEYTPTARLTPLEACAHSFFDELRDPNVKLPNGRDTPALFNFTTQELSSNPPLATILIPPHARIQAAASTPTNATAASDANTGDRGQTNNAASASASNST
The EC50 is the concentration that produces a half-maximal response. Take `C[C@@H]1O[C@@H](Oc2c(-c3cc(O)c(O)c(O)c3)oc3cc(O)cc(=O)c-3c2O)[C@H](O)[C@H](O)[C@H]1O` [3-[(2S,3R,4R,5R,6S)-6-methyl-3,4,5-tris(oxidanyl)oxan-2-yl]oxy-5,7-bis(oxidanyl)-2-[3,4,5-tris(oxidanyl)phenyl]chromen-4-one]: the EC50 is more than 300 µM.

Take `CN(C)S(=O)(=O)c1cc(NC(=O)COC(=O)Cc2ccc(Br)cc2)ccc1Cl` [SMR000243172]: the EC50 was more than 300 µM. The compound `COc1ccc(C=c2sc(=CC(=O)C(C)(C)C)[nH]c2=O)cc1O` [2-(3,3-dimethyl-2-oxidanylidene-butylidene)-5-[(4-methoxy-3-oxidanyl-phenyl)methylidene]-1,3-thiazolidin-4-one] showed an EC50 of 7.2 µM.

Turning to `CC1(C)Oc2ccc(C(=O)N3CCOCC3)cc2N(CC(=O)N2CCOCC2)C1=O`, the EC50 was more than 300 µM.

In the case of `O=C(CN(Cc1ccccc1)C(=O)CCC(=O)Nc1ccccn1)NCc1ccc(F)cc1`, the midpoint of the response, the EC50, lay at 58.8 µM.

For `O=C(c1cccs1)c1coc2ccc(O)cc12`, the EC50 was determined as 4.73 µM.

The compound `Cc1cccc2cc3c(NC(=O)C(C)(C)C)nn(CC(C)C)c3nc12` returned an EC50 of more than 300 µM.

Regarding `O=C(Nc1ncc(Cc2ccccc2)s1)C1CCCO1` (stereo not drawn) [MLS000100685], the EC50 worked out at 17.6 µM. The compound `COc1ccc(C(=O)c2coc3ccc(OC(C)=O)cc23)cc1` showed an EC50 of more than 300 µM. `O=C(O)c1ccccc1Nc1ccc(OC(F)F)cc1` [SMR000372165] gave an EC50 of more than 300 µM. Consider `c1ccc(CNc2nc(-c3cccnc3)nc3ccccc23)cc1`, for which the EC50 is more than 300 µM. `COc1ccc(C(=O)ON=C(C)c2cccs2)cc1` [MLS000544771]: it took 13.9 µM to reach a half-maximal effect (EC50). The figure for `COC(=O)c1sc(=S)n(Cc2ccccc2)c1C` [methyl 3-benzyl-4-methyl-2-sulfanylidene-1,3-thiazole-5-carboxylate] is more than 300 µM; for `COc1ccc(CCNc2c(C=O)c(=O)[nH]c3ccccc23)cc1OC` it is more than 300 µM. `COC(=O)c1cc(C(=O)Nc2cc(C)ccn2)cc([N+](=O)[O-])c1` [methyl 3-{[(4-methyl-2-pyridinyl)amino]carbonyl}-5-nitrobenzoate] returned an EC50 of more than 300 µM. `Cc1n[nH]c2c1[C@@H](c1ccccc1[N+](=O)[O-])C(C#N)C(=N)O2` (stereo partly drawn) [(4S)-6-azanyl-3-methyl-4-(2-nitrophenyl)-2,4-dihydropyrano[2,3-c]pyrazole-5-carbonitrile] displayed an EC50 of 9.65 µM. With `Cc1cc(-c2n[nH]c3c2C(c2cccc(O)c2)C(C#N)C(=N)O3)c(C)s1` (stereo not drawn) [SMR000136653], a half-maximal effect (EC50) was put at 25.4 µM.

On to `COC(=O)c1sc(Nc2ccccc2)nc1C` [2-anilino-4-methyl-5-thiazolecarboxylic acid methyl ester], for which the EC50 was more than 300 µM. With `CCOc1cccc(-c2c(C(=O)NN=C(C)c3cccs3)nnn2-c2nonc2N)c1` [1-(4-azanyl-1,2,5-oxadiazol-3-yl)-5-(3-ethoxyphenyl)-N-(1-thiophen-2-ylethylideneamino)-1,2,3-triazole-4-carboxamide] the figure was 96.9 µM.

For `N#CC(C#N)c1nc2ccccc2nc1-[n+]1cccc([N-]C(=O)c2ccccc2)c1`, the EC50 is more than 300 µM. With `CC(C)CNc1nc(N)c([N+](=O)[O-])c(NC2CCCCC2)n1` [MLS001213331], the response was half-maximal at 13.5 µM (EC50). Compound `Cc1c([N+](=O)[O-])c2ccc(O)cc2n1-c1ccccc1` [2-methyl-3-nitro-1-phenylindol-6-ol] yielded an EC50 of 2.14 µM.

The compound `Clc1ccccc1CN1CCN(c2cccc3[nH]ccc23)CC1` [4-[4-[(2-chlorophenyl)methyl]piperazin-1-yl]-1H-indole] had an EC50 of more than 300 µM. `CCOc1ccccc1N1CCN(S(=O)(=O)c2cc(C)ccc2OC)CC1` [MLS000703554] yielded an EC50 of more than 300 µM. Consider `O=C(O)CCn1cc(C=C2C(=O)NC(=S)NC2=O)c(-c2ccccc2)n1` [MLS000707577], for which the EC50 was more than 300 µM. As to `COC(=O)C(C(=O)OC)c1ccc(NC(=O)c2cccc(Cl)c2)cc1` [dimethyl 2-{4-[(3-chlorobenzoyl)amino]phenyl}malonate], the EC50 was more than 300 µM.

In turn, `Cc1ccc(-n2c(C)nc3c(cnn3-c3ccc(F)cc3)c2=O)cc1C` [SMR000026457] gave an EC50 of more than 300 µM. Turning to `Nc1ccccc1Nc1cc(-c2ccccc2)[nH]n1` [2-N-(5-phenyl-1H-pyrazol-3-yl)benzene-1,2-diamine], the EC50 was more than 300 µM. Compound `COc1cccc(C(=O)c2sc(NC(C)C)nc2N)c1` [MLS000036929] registered a concentration giving a half-maximal response (EC50) of 0.33 µM. Consider `CC1(C)CC(=O)C2C(=Nc3cc4c(cc3C2c2ccc(F)cc2)OCO4)C1` (stereo not drawn) [MLS000528763], for which the EC50 is more than 300 µM. Turning to `Nc1nc(NCCOCCO)nc(NC2CCCCC2)c1[N+](=O)[O-]` [SMR000540405], the EC50 came to 3.01 µM. `COCCN(CC(=O)NCc1ccc(OC)cc1)C(=O)CCC(=O)Nc1nccs1` [MLS000032576] yielded an EC50 of more than 300 µM. With `CCOc1ccc(CNC(=O)Cn2ccc3cc(S(=O)(=O)N4CCCCCC4)ccc32)cc1` [SMR000629622] the figure was more than 300 µM. `CCOc1ccc2nc(N3CCC(C(=O)N4CCN(C5CCCCC5)CC4)CC3)sc2c1` [(4-cyclohexyl-1-piperazinyl)-[1-(6-ethoxy-1,3-benzothiazol-2-yl)-4-piperidinyl]methanone] yielded an EC50 of more than 300 µM. The compound `COC(=O)c1c(C)oc2ccc(OC(=O)c3cccs3)cc12` [methyl 2-methyl-5-thiophen-2-ylcarbonyloxy-1-benzofuran-3-carboxylate] showed an EC50 of more than 300 µM. For the compound `O=c1cc(-c2ccc(O)cc2)oc2cc(O)cc(O)c12` [Naringenin, 18], the EC50 was determined as 49.5 µM. With `CCCOC1CCCN(Cc2cn(C)nc2-c2ccccc2F)C1` (stereo not drawn) [1-[[3-(2-fluorophenyl)-1-methylpyrazol-4-yl]methyl]-3-propoxypiperidine] the figure was more than 300 µM; with `CCCNc1nc(N)nc(-c2cc(Cl)ccc2OC)n1` [MLS000538216], more than 300 µM; with `COc1ccc(C(=O)NC(=S)NC2CCCCC2)cc1`, more than 300 µM. With `COc1cccc(C(=O)NCCCNC(=O)c2cccc(OC)c2)c1` [3-methoxy-N-[3-[[(3-methoxyphenyl)-oxomethyl]amino]propyl]benzamide] the figure was more than 300 µM. Compound `Cc1cccc(Nc2nc(NCCCN3CCOCC3)nc(N)c2[N+](=O)[O-])c1` [N4-(3-methylphenyl)-N2-(3-morpholin-4-ylpropyl)-5-nitro-pyrimidine-2,4,6-triamine] had an EC50 of 1.72 µM. `CCC(=NNC(=O)CSCc1ccccc1Cl)c1ccc2c(c1)OCCO2` had an EC50 of more than 300 µM. Turning to `O=[N+]([O-])c1cc(-c2nc(-c3ccncc3)no2)ccc1Cl` [MLS000331762], the EC50 is more than 300 µM. With `COc1ccc(CNC(=O)CN(Cc2ccc(OC)cc2)C(=O)CCC(=O)Nc2nccs2)cc1` [MLS001222948], a half-maximal response (EC50) required 19.1 µM. In the case of `CCC(Sc1ccc2nnc(-c3ccc(F)cc3)n2n1)C(=O)OC` (stereo not drawn) [MLS000093330], the midpoint of the response, the EC50, lay at 20.1 µM. For `Cc1ccc(-c2nn(-c3ccccc3)cc2C=NNC(=O)c2ccc(Br)o2)cc1`, the EC50 was more than 300 µM. `CC1(C)CC(=O)C(C2(O)C(=O)Nc3ccccc32)CO1` (stereo not drawn) [MLS000689086]: the EC50 is more than 300 µM. In turn, `CCOC(=O)Cc1csc(NC(=O)CSc2nc(-c3ccccc3)c(C#N)c(=O)[nH]2)n1` [MLS000690700] displayed an EC50 of more than 300 µM.
